Assay results taken from a compilation of properties of binary mixtures (doi:10.1080/00986445.2015.1114477).

Assay: xn = mol fraction of the nth substance listed
Conditions: 100 kPa

CN1CCCC1=O + CCCCCCCCn1cc[n+](C)c1.[Cl-] showed a viscosity (288.15 K, x1 = 1) of 1.989 mPa·s, a viscosity (298.15 K, x1 = 1) of 1.679 mPa·s and a viscosity (303.15 K, x1 = 1) of 1.556 mPa·s. For the same compound, the viscosity (308.15 K, x1 = 1) was 1.441 mPa·s, the viscosity (313.15 K, x1 = 1) was 1.323 mPa·s and the viscosity (323.15 K, x1 = 1) was 1.148 mPa·s. For the same compound, the viscosity (328.15 K, x1 = 1) was 1.065 mPa·s and the viscosity (333.15 K, x1 = 1) was 1.029 mPa·s.

Work on CN1CCN(C)C1=O + CCCCCCCCn1cc[n+](C)c1.[Cl-] yielded a viscosity (288.15 K, x2 = 0) of 2.368 mPa·s, a viscosity (288.15 K, x2 = 0.105) of 7.99 mPa·s and a viscosity (288.15 K, x2 = 0.2056) of 29.6 mPa·s. For the same compound, the viscosity (288.15 K, x2 = 0.3991) was 217 mPa·s, the viscosity (288.15 K, x2 = 0.6016) was 1500 mPa·s and the viscosity (293.15 K, x2 = 0) was 2.139 mPa·s. The viscosity (293.15 K, x2 = 0.105) was 6.88 mPa·s, the viscosity (293.15 K, x2 = 0.2056) was 24 mPa·s and the viscosity (293.15 K, x2 = 0.3018) was 67.9 mPa·s. The viscosity (293.15 K, x2 = 0.4964) was 420 mPa·s, the viscosity (293.15 K, x2 = 0.6016) was 990 mPa·s and the viscosity (293.15 K, x2 = 0.7007) was 1973 mPa·s. It also gave a viscosity (298.15 K, x2 = 0) of 1.945 mPa·s, a viscosity (298.15 K, x2 = 0.105) of 5.98 mPa·s and a viscosity (298.15 K, x2 = 0.2056) of 19.66 mPa·s. The viscosity (298.15 K, x2 = 0.3018) was 53.2 mPa·s, the viscosity (298.15 K, x2 = 0.3991) was 118.5 mPa·s and the viscosity (298.15 K, x2 = 0.4964) was 295 mPa·s. For the same compound, the viscosity (298.15 K, x2 = 0.6016) was 669 mPa·s, the viscosity (298.15 K, x2 = 0.7007) was 1290 mPa·s and the viscosity (298.15 K, x2 = 0.7994) was 2473 mPa·s. For the same compound, the viscosity (303.15 K, x2 = 0) was 1.76 mPa·s, the viscosity (303.15 K, x2 = 0.105) was 5.25 mPa·s and the viscosity (303.15 K, x2 = 0.3018) was 42.4 mPa·s. The viscosity (303.15 K, x2 = 0.3991) was 90.5 mPa·s, the viscosity (303.15 K, x2 = 0.6016) was 467 mPa·s and the viscosity (303.15 K, x2 = 0.7007) was 874 mPa·s. It also gave a viscosity (303.15 K, x2 = 0.7994) of 1632 mPa·s, a viscosity (308.15 K, x2 = 0) of 1.616 mPa·s and a viscosity (308.15 K, x2 = 0.105) of 4.64 mPa·s. The viscosity (308.15 K, x2 = 0.2056) was 14 mPa·s, the viscosity (308.15 K, x2 = 0.3018) was 34.3 mPa·s and the viscosity (308.15 K, x2 = 0.3991) was 70.8 mPa·s. It also gave a viscosity (308.15 K, x2 = 0.4964) of 170.9 mPa·s, a viscosity (308.15 K, x2 = 0.6016) of 335 mPa·s and a viscosity (308.15 K, x2 = 0.7007) of 608 mPa·s. It also gave a viscosity (313.15 K, x2 = 0) of 1.491 mPa·s, a viscosity (313.15 K, x2 = 0.105) of 4.14 mPa·s and a viscosity (313.15 K, x2 = 0.2056) of 11.99 mPa·s. It also gave a viscosity (313.15 K, x2 = 0.3018) of 28.2 mPa·s, a viscosity (313.15 K, x2 = 0.3991) of 56.4 mPa·s and a viscosity (313.15 K, x2 = 0.6016) of 245 mPa·s. It also gave a viscosity (313.15 K, x2 = 0.7007) of 431 mPa·s, a viscosity (318.15 K, x2 = 0) of 1.381 mPa·s and a viscosity (318.15 K, x2 = 0.105) of 3.72 mPa·s. It also gave a viscosity (318.15 K, x2 = 0.2056) of 10.25 mPa·s, a viscosity (318.15 K, x2 = 0.3018) of 23.45 mPa·s and a viscosity (318.15 K, x2 = 0.3991) of 45.7 mPa·s. For the same compound, the viscosity (318.15 K, x2 = 0.6016) was 196 mPa·s, the viscosity (318.15 K, x2 = 0.7007) was 315 mPa·s and the viscosity (318.15 K, x2 = 0.7994) was 551 mPa·s. The viscosity (323.15 K, x2 = 0) was 1.28 mPa·s, the viscosity (323.15 K, x2 = 0.105) was 3.36 mPa·s and the viscosity (323.15 K, x2 = 0.2056) was 8.93 mPa·s. For the same compound, the viscosity (323.15 K, x2 = 0.3018) was 19.75 mPa·s, the viscosity (323.15 K, x2 = 0.3991) was 37.5 mPa·s and the viscosity (323.15 K, x2 = 0.6016) was 149.3 mPa·s. The viscosity (323.15 K, x2 = 0.7007) was 251 mPa·s, the viscosity (323.15 K, x2 = 0.7994) was 404 mPa·s and the viscosity (328.15 K, x2 = 0) was 1.195 mPa·s. The viscosity (328.15 K, x2 = 0.2056) was 7.84 mPa·s, the viscosity (328.15 K, x2 = 0.3018) was 16.69 mPa·s and the viscosity (328.15 K, x2 = 0.4964) was 63.2 mPa·s. For the same compound, the viscosity (328.15 K, x2 = 0.6016) was 116 mPa·s, the viscosity (328.15 K, x2 = 0.7007) was 191 mPa·s and the viscosity (328.15 K, x2 = 0.7994) was 301 mPa·s. For the same compound, the viscosity (333.15 K, x2 = 0) was 1.117 mPa·s, the viscosity (333.15 K, x2 = 0.105) was 2.78 mPa·s and the viscosity (333.15 K, x2 = 0.2056) was 6.92 mPa·s. For the same compound, the viscosity (333.15 K, x2 = 0.3018) was 14.54 mPa·s, the viscosity (333.15 K, x2 = 0.3991) was 26.3 mPa·s and the viscosity (333.15 K, x2 = 0.4964) was 51.6 mPa·s. The viscosity (333.15 K, x2 = 0.6016) was 91.4 mPa·s and the viscosity (333.15 K, x2 = 0.7994) was 229 mPa·s.

Work on CCCCCC[n+]1ccn(C)c1.[Cl-] + CN1CCCC1=O yielded a viscosity (288.15 K, x2 = 0.2211) of 2552 mPa·s, a viscosity (288.15 K, x2 = 0.3181) of 1037 mPa·s and a viscosity (288.15 K, x2 = 0.4223) of 406 mPa·s. The viscosity (288.15 K, x2 = 0.5271) was 167.3 mPa·s, the viscosity (288.15 K, x2 = 0.6327) was 63.8 mPa·s and the viscosity (288.15 K, x2 = 0.718) was 29.2 mPa·s. It also gave a viscosity (288.15 K, x2 = 0.8139) of 11.44 mPa·s, a viscosity (288.15 K, x2 = 0.9083) of 4.69 mPa·s and a viscosity (293.15 K, x2 = 0.2211) of 1609 mPa·s. For the same compound, the viscosity (293.15 K, x2 = 0.3181) was 687 mPa·s, the viscosity (293.15 K, x2 = 0.5271) was 123.1 mPa·s and the viscosity (293.15 K, x2 = 0.6327) was 49.7 mPa·s. For the same compound, the viscosity (293.15 K, x2 = 0.718) was 23.7 mPa·s, the viscosity (293.15 K, x2 = 0.8139) was 9.86 mPa·s and the viscosity (293.15 K, x2 = 0.9083) was 4.16 mPa·s. The viscosity (298.15 K, x2 = 0.4223) was 207 mPa·s, the viscosity (298.15 K, x2 = 0.6327) was 39.4 mPa·s and the viscosity (298.15 K, x2 = 0.9083) was 3.72 mPa·s. For the same compound, the viscosity (303.15 K, x2 = 0.2211) was 699 mPa·s, the viscosity (303.15 K, x2 = 0.3181) was 329 mPa·s and the viscosity (303.15 K, x2 = 0.5271) was 71.4 mPa·s. It also gave a viscosity (303.15 K, x2 = 0.6327) of 31.7 mPa·s, a viscosity (303.15 K, x2 = 0.718) of 16.08 mPa·s and a viscosity (303.15 K, x2 = 0.8139) of 7.37 mPa·s. The viscosity (303.15 K, x2 = 0.9083) was 3.35 mPa·s, the viscosity (308.15 K, x2 = 0.3181) was 239 mPa·s and the viscosity (308.15 K, x2 = 0.4223) was 115.1 mPa·s. The viscosity (308.15 K, x2 = 0.5271) was 55.9 mPa·s, the viscosity (308.15 K, x2 = 0.6327) was 26 mPa·s and the viscosity (308.15 K, x2 = 0.9083) was 3.04 mPa·s. For the same compound, the viscosity (313.15 K, x2 = 0.2211) was 342 mPa·s, the viscosity (313.15 K, x2 = 0.3181) was 176 mPa·s and the viscosity (313.15 K, x2 = 0.4223) was 87.7 mPa·s. For the same compound, the viscosity (313.15 K, x2 = 0.5271) was 45.3 mPa·s, the viscosity (313.15 K, x2 = 0.8139) was 5.71 mPa·s and the viscosity (318.15 K, x2 = 0.2211) was 247 mPa·s. The viscosity (318.15 K, x2 = 0.3181) was 132.3 mPa·s, the viscosity (318.15 K, x2 = 0.4223) was 68.5 mPa·s and the viscosity (318.15 K, x2 = 0.5271) was 36.7 mPa·s. The viscosity (318.15 K, x2 = 0.6327) was 17.7 mPa·s, the viscosity (318.15 K, x2 = 0.718) was 10.04 mPa·s and the viscosity (318.15 K, x2 = 0.8139) was 5.08 mPa·s. It also gave a viscosity (318.15 K, x2 = 0.9083) of 2.55 mPa·s, a viscosity (323.15 K, x2 = 0.2211) of 186 mPa·s and a viscosity (323.15 K, x2 = 0.5271) of 30.2 mPa·s. For the same compound, the viscosity (323.15 K, x2 = 0.6327) was 15.13 mPa·s, the viscosity (323.15 K, x2 = 0.718) was 8.75 mPa·s and the viscosity (323.15 K, x2 = 0.8139) was 4.55 mPa·s. The viscosity (323.15 K, x2 = 0.9083) was 2.353 mPa·s, the viscosity (328.15 K, x2 = 0.2211) was 140.1 mPa·s and the viscosity (328.15 K, x2 = 0.3181) was 79.8 mPa·s. It also gave a viscosity (328.15 K, x2 = 0.5271) of 25.1 mPa·s, a viscosity (328.15 K, x2 = 0.6327) of 13.09 mPa·s and a viscosity (328.15 K, x2 = 0.8139) of 4.07 mPa·s. For the same compound, the viscosity (328.15 K, x2 = 0.9083) was 2.185 mPa·s, the viscosity (333.15 K, x2 = 0.2211) was 109.4 mPa·s and the viscosity (333.15 K, x2 = 0.3181) was 63.8 mPa·s. It also gave a viscosity (333.15 K, x2 = 0.4223) of 36.7 mPa·s, a viscosity (333.15 K, x2 = 0.5271) of 21.19 mPa·s and a viscosity (333.15 K, x2 = 0.6327) of 11.35 mPa·s. The viscosity (333.15 K, x2 = 0.718) was 6.77 mPa·s and the viscosity (333.15 K, x2 = 0.8139) was 3.68 mPa·s.
